Values of other authors as cited in US20140228287A1, “1-[(3-CYANO-PYRIDIN-2-YL)METHYL]-3-METHYL-7-(2-BUTYN-1-YL)-8-[3-(R)-AMINO-PIPERIDIN-1-YL]-AXANTHINE FOR THE TREATMENT OF A METABOLIC DISORDER OF A PREDOMINANTLY CARNIVOROUS NON-HUMAN ANIMAL” (BOEHRINGER INGELHEIM VETMEDICA GMBH, priority 2010, published 2014).

Columns and labels:
[1] = system: plasma glucagon; conditions: in vivo; cited from earlier work
[2] = system: GLP-1; conditions: after administration to rats and to cats; cited from earlier work

Question: With `N#Cc1ccc(NCCNCC(=O)N2CCC[C@H]2C#N)nc1` [NVP-DPP728] as the molecule, how does the “plasma glucagon concentration in cats” value [1] read?
Answer: reduce the plasma glucagon concentration

Question: With `CC#CCn1c(N2CCC[C@@H](N)C2)nc2c1c(=O)n(Cc1nc(C)cc3ccccc13)c(=O)n2C` [1-[(3-Methyl-isochinoline-1-yl)methyl]-3-methyl-7-(2-butin-1-yl)-8-((R)-3-amino-piperidine-1-yl)-xanthine] as the molecule, how does the “effect of GLP-1” value [2] read?
Answer: the effect of GLP-1 could be prolonged
